The record followed here is patent US20260191793A1, “HBV SPECIFIC EXOSOMES AND USES THEREOF” (priority 2022, published 2026).

For the data set, the system named is HBV replication in HepG2/2.2.15 cells. The data set is described as follows: Antiviral efficiency of synthetic gRNA/Cas9 RNPs in HepG2/2.2.15 cells (HBsAg/HBeAg ELISA, HBV mRNA and HBV DNA real-time PCR). The data set is classed as cell-based, Hepatitis B virus (HBV). The arrangement: reduction in HBsAg expression / reduction of HBV mRNA expression: concentration or dose not given beside the values. The settings on record: for reduction of HBV mRNA expression: HepG2/2.2.15 cells, real-time PCR, vs gRNAc. The protocol: The HepG2.2.15 Human Hepatoblastoma cell line (Cat #SCC249, MilliporeSigma, Burlington, MA) is a traditional HBV cellular model that is widely used for studying HBV infection and drug development. HepG2.2.15 cells display constitutive HBV RNA transcription and DNA replication, but a lesser detection of cccDNA by Southern blot and PCR detection. The HepG2/2.2.15 cells were cultured in DMEM (Cat #MT10013CV, Fisher Scientific, Waltham, MA) supplemented with 10% Fetal bovine serum, penicillin, and streptomycin (50 ug/ml each; Fisher Scientific) and maintained at 37° C. and 5% CO2 atmosphere. The Amaxa Cell Line Nucleofector Kit V (Lonza VCA-1003) was used to deliver gRNA/Cas9 into HepG2/2.2.15 cells stably expressing HBV. For each transfection, 160 μM gRNA and 160 μM tracrRNA were first incubated at 37° C. for 30 minutes, followed by adding 80 μM Cas9 protein and incubating at 37° C. for 15 minutes. Approximately 40 μM of the gRNA/Cas9 complex was transfected into HepG2/2.2.15 cells (5×10^5) following the manufacturer's instructions. After 72 hours, the culture supernatants were harvested to measure HBV antigens by ELISA, and the cell pellets were used to determine HBV DNA or mRNA levels by real-time-PCR.
The levels of HBsAg and HBeAg in the supernatants of cell cultures were determined by ELISA (Cat #KA0286 and NBP2-600029, Novus Biologicals, Littleton, CO) according to the manufacturer's protocol. The optical density of antigen levels was measured at 450 nm using a microplate spectrophotometer. The samples were run in triplicate, and the experiments were repeated at least three times.
Total RNA was extracted from the cell pellets by the RNeasy Mini kit (Cat #74104, QIAGEN, Germantown, MD), and 1 μg RNA was converted to cDNA using the Applied Biosystems High-Capacity cDNA Reverse Transcription Kit (Cat #43-688-14, ThermoFisher, Waltham, MA). Quantitative real-time PCR (real-time-qPCR) was performed using iTaq Universal SYBR Green Supermix (Cat #1725124, Bio-Rad, Hercules, CA). The PCR primers were: HBV mRNA forward, 5′-[…]-3′ (SEQ ID NO: 52), reverse, 5′-[…]-3′ (SEQ ID NO: 53); HBV pgRNA forward 5′-[…]-3′ (SEQ ID NO: 54), reverse 5′-[…]-3′ (SEQ ID NO: 55); and GAPDH forward 5′-[…]-3′ (SEQ ID NO: 56), reverse 5′-[…]-3′ (SEQ ID NO: 57). The gene expression levels were determined by the […] method and values were normalized to GAPDH expression as an internal control.
Total and protein-free HBV DNAs were extracted from whole cell lysate using the Hirt DNA method according to a previously published protocol. For HBV cccDNA analysis, the protein-free DNA was treated with 10 units of T5 exonuclease (NEB) at 37° C. for 30 min, followed by 95° C. for 5 min, and diluted 4-fold with nuclease-free water. Next, the cccDNA was cleaned with a DNA clean and concentrator kit (ZYMO Research, Irvine, CA) and used for PCR. HBV total DNA and cccDNA were analyzed by real-time PCR using a TaqMan PCR assay. The primers and probe used to amplify HBV total DNA were: HBV total DNA forward: 5′-[…]-3′ (SEQ ID NO: 58), reverse 5′-[…]-3′ (SEQ ID NO: 59), and internal probe: 5′-FAM-[…]-TAMRA-3′ (SEQ ID NO: 60). The primers and probe used to amplify HBV cccDNA (Genotype D, subtype ayw) were: forward: 5′-[…]-3′ (SEQ ID NO: 61), reverse 5′-[…]-3′ (SEQ ID NO: 62), and internal probe 5′-FAM-[…]-TAMRA-3′ (SEQ ID NO: 63). The PCR reactions were performed in 20 μl volumes and contained 2 μl DNA. The PCR conditions were: 95° C. for 10 min, followed by 45 cycles of 95° C. for 15 s and 64° C. for 30 s. The DNA levels were determined by the […] method and values were normalized to the control group.
Because the hepatoma cell line HepG2/2.2.15 is a traditional HBV cellular model used to test the efficacy and cytotoxicity of anti-HBV drugs, the synthetic gRNA/Cas9 RNPs were tested for their antiviral efficiency in HepG2/2.2.15 cells. […]

On to “GTCGCAGAAGATCTCAATCTNGG (guide GUCGCAGAAGAUCUCAAUCUNGG; complexed with Cas9 as ribonucleoprotein, chemistry not given here) [gRNA3, tested as synthetic gRNA/Cas9 RNP]”, for which the “reduction of HBV mRNA expression” value was ~ 50%.

For “GATTGAGACCTTCGTCTGCGNGG (guide GAUUGAGACCUUCGUCUGCGNGG; complexed with Cas9 as ribonucleoprotein, chemistry not given here) [gRNA1, tested as synthetic gRNA/Cas9 RNP]”, the “reduction of HBV mRNA expression” value was ~ 50%. As for “GAAGCGAAGTGCACACGGTCNGG (guide GAAGCGAAGUGCACACGGUCNGG; complexed with Cas9 as ribonucleoprotein, chemistry not given here) [gRNA8, tested as synthetic gRNA/Cas9 RNP]”, for the setting “HepG2/2.2.15 supernatant, 3 days after nucleofection, ELISA, vs scrambled gRNAc”, the “reduction in HBsAg expression” value is listed as 50%.
